Entries after “also recorded” stand apart in the source; their conditions may differ. Starred links: 1 amine or outer side, 2 acyl side, 3 side chain; linkers in the order of their positions; H or OH if unused. Residues, ends and D or L forms follow the SMILES beside them. *: point of attachment. Glutaryl = O=C(CCCC(=O)[*:2])[*:1]; AMC = Cc1cc(=O)oc2cc(N*)ccc12
How the values were obtained:
[1] = tested on: map Methionine aminopeptidase; test: Assays for proteolytic activity, fluorogenic MCA substrate (Table 5); assay type: biochemical, Mycoplasma hyorhinis; set-up: unit not given beside the values
Description: (§1) Further studies examined the suitability of the […] for use in a diagnostic test. These studies used several fluorogenic substrates consisting of small chain amino acids coupled to a methoxy coumarin fluorescent probe (MCA, (7-methoxycoumarin-4-yl)acetyl). The test conditions were “buffer,” phosphate-buffered saline (PBS), “uninfected medium,” medium from cell cultures not infected with Mycoplasma, “infected medium,” medium from cell cultures infected with Mycoplasma, and a Mycoplasma positive control derived from a Mycoplasma culture. In each case the uninfected media control had substantial background proteolytic activity, with pepA being the most candidate with a signal-to-noise ratio (S/N) of about 2, where S/N=(Vmax infected medium)/(Vmax uninfected medium).

M. hyorhinis [2] = test: Vmax measured using MCA labeled substrates with gentle HECAMEG lysis; assay type: biochemical, Mycoplasma hyorhinis; set-up: Vmax: unit not given here
Description: (§2) A presently preferred substrate is leu-MCA that had significant activity above the uninfected media control under the gentle conditions used to lyse the Mycoplasma (0.05% HECAMEG, 1 mM MgCl2, 100 mM NaCl, 40 mM Tris buffer, pH 8.5). The MCA-Leu substrate produces a signal level of 500 mOD in 30 minutes with M. hyorhinis, while M. hyorhinis has weak activity for arg-MCA.

[3] = tested on: reductases produced by the bacteria; test: Dye decolorization by bacterial culture supernatants; assay type: biochemical; details: bacterial culture supernatant, about 18 hours incubation
Description: Each well was incubated with 10 μg of reactive black 5 plus 190 μl of culture supernatant from the following bacterium: E. coli, E. faecalis, S. aureus, P. aeruginosa, S. pyogenes, and S. marcescens. […] The decolorization is indicative of reductases produced by the bacteria.
Reductase activity can be measured through a Azo dye that gets decolorized by the release of reductases from many bacterial cells. […] A sensor placed on the bottom of a culture dish, buffer container or even on a swab for measuring the presence of mycoplasma in human fluids can be used to ascertain bacterial contamination or infection. The benefit of a simple azo dye sensor is low cost although it may not specifically detect different bacteria. […] Each well was incubated with 10 μg of reactive black 5 plus 190 μl of filtered culture supernatant from the following bacterium: E. coli, E. faecalis, S. aureus, P. aeruginosa, S. pyogenes, and S. marcescens. […] The decolorization is indicative of reductases produced by the bacteria.

[4] = tested on: lon ATP-dependent protease; test: Assays for proteolytic activity, fluorogenic MCA substrate (Table 5); assay type: biochemical, Mycoplasma hyorhinis; set-up: unit not given beside the values
Description: as §1

[5] = tested on: thioredoxin reductase (trxB); test: Thioredoxin reductase (trxB) detection assay; assay type: biochemical, Mycoplasma hyorhinis
Description: Other fluorescent probes such as BODIPY®FL L-cystine and the 2′,7′-difluoro-4′-(2-(5-((dimethyl amino phenyl)azo)pyridyl)dithiopropionyl aminomethyl)fluorescein (abbreviated as DFDMAP-fluorescein) were studied to improve the sensitivity and the signal-to-noise ratio of the assay. Assays were performed with 40 mM Tris pH 7.2, 100 mM NaCl±detergent.
A detergent lysis buffer procedure that would hydrolyze the simple Mycoplasma cell membranes but not lyse the tissue culture cells was needed. Methyl-6-O—(N-heptylcarbamoyl)-α-D-glucopyranoside (HECAMEG) is a preferred detergent.
An alternative substrate to produce the thioredoxin reductase signal was to measure the release of horseradish peroxidase (HRP) from a chromatography bead tethered with the heterobifunctional crosslinking reagent 3,3′-dithiobis[sulfosuccinimidylpropionate] (DTSSP).

M. hyorhinis [6] = test: Effect of divalent cations on Vmax, MCA-Leu substrate; assay type: biochemical, Mycoplasma hyorhinis; set-up: unit not given here; details: 1 mM additive in place of 1 mM MgCl2
Description: as §2
Detergent lysis of M. hyorhinis with HECAMEG gives better signal than sonication. Manganese or magnesium also improves the signal to noise ratio.

E. coli = test: Thioredoxin reductase cross-reactivity with DTNB substrate; assay type: biochemical; details: up to 10^6 CFU/ml E. coli
Description: (§3) Since thioredoxin reductases are widely distributed in eukaryotes and prokaryotic cells, there is a possibility that thioredoxin reductases from other microbes may cross-react with this assay to give a false positive result. […] This high NTS activity is presumed to be useful for Mycoplasma for the detoxification of reactive oxygen compounds, since the Mollicutes have simple genomes that lack the genes encoding enzymes such as catalase, peroxidase and […] that function to remove H2O2 and other oxygen radicals in other bacteria (Gibson, D. G., et al., Complete chemical synthesis, assembly, and cloning of a Mycoplasma genitalium genome. Science. 319(5867):1215-1220 (2008)).

S. aureus = test: as above; assay type: biochemical; details: up to 10^6 CFU/ml S. aureus
Description: as §3

Mycoplasma cells = test: Detergent lysis buffer procedure for trxB assay; assay type: cell-based
Description: A detergent lysis buffer procedure that would hydrolyze the simple Mycoplasma cell membranes but not lyse the tissue culture cells was needed. Methyl-6-O—(N-heptylcarbamoyl)-α-D-glucopyranoside (HECAMEG) is a preferred detergent. […] As expected, 0.1 mM NADPH enhanced the activity of trxB (FIG. 12). As a substrate for trxB, Bodipy® FL L-cystine provided a signal that was 7500 times that of the buffer control, however this signal was an artifact of the digitonin.

[7] = tested on: pepA Leucine aminopeptidase; test: Assays for proteolytic activity, fluorogenic MCA substrate (Table 5); assay type: biochemical, Mycoplasma hyorhinis
Description: as §1

In the case of “methionine-(7-methoxycoumarin-4-yl)acetyl [met-MCA]”, the Vmax ([1]; Buffer (PBS)) is reported as 19.4, the Vmax ([1]; Infected medium) is reported as 627 and the Vmax ([1]; Mycoplasma positive control) is reported as 733. It also gave a Vmax ([1]; Uninfected medium) of 430, a Vmax (M. hyorhinis [2]; Buffer) of 125 and a Vmax (M. hyorhinis [2]; Infected medium) of 302082. The Vmax (M. hyorhinis [2]; Medium) was 1731 and the Vmax (M. hyorhinis [2]; Uninfected medium) was 19004.

`CN(C)c1ccc(N=Nc2ccc(C(=O)O)cc2)cc1` [DABCYL, 4-((4-(dimethylamino)phenyl)azo)benzoic acid] was tested, and the decolorization [3] was “completely decolorized”.

`CCN(Cc1cccc(S(=O)(=O)[O-])c1)c1ccc(C(=C2C=CC(=[N+](CC)Cc3cccc(S(=O)(=O)[O-])c3)C=C2)c2ccccc2S(=O)(=O)[O-])cc1.[Na+].[Na+]` [blue dye number 1] was tested, and the decolorization [3] was “not decolorized”.

For `Cc1cc(=O)oc2cc(NC(=O)[C@H](Cc3ccccc3)NC(=O)[C@H](C)NC(=O)[C@H](C)NC(=O)CCCC(=O)O)ccc12` [glt-ala-ala-phe-MCA] (Glutaryl-Ala-Ala-Phe-{AMC}), the Vmax ([4]; Buffer (PBS)) was 55.8, the Vmax ([4]; Infected medium) was 1802 and the Vmax ([4]; Mycoplasma positive control) was 3354. The Vmax ([4]; Uninfected medium) was 1460.

In the case of `Nc1c(N=Nc2ccc(S(=O)(=O)CCOS(=O)(=O)[O-])cc2)c(S(=O)(=O)[O-])cc2cc(S(=O)(=O)[O-])c(N=Nc3ccc(S(=O)(=O)CCOS(=O)(=O)[O-])cc3)c(O)c12.[Na+].[Na+].[Na+].[Na+]` [reactive black 5], the decolorization [3] is reported as “completely decolorized”.

For `Cc1cc(C)n2c1C=C1C=CC(CCC(=O)N[C@@H](CSSC[C@H](NC(=O)CCC3=[N+]4C(=Cc5c(C)cc(C)n5[B-]4(F)F)C=C3)C(=O)O)C(=O)O)=[N+]1[B-]2(F)F` [Bodipy® FL L-cystine, BODIPY®FL L-cystine], the “signal relative to buffer control” value ([5]; signal was an artifact of the digitonin) was 7500 times.

For `CN(C)c1ccc(N=Nc2ccc(SSCCC(=O)NCc3c(O)c(F)cc4c(-c5ccccc5C(=O)O)c5cc(F)c(=O)cc-5oc34)nc2)cc1` [DFDMAP fluorescein, 2′,7′-difluoro-4′-(2-(5-((dimethylaminophenyl)azo)pyridyl)dithiopropionylaminomethyl)fluorescein], the detection level ([5]; at 10^7-10^8 CFU/ml) was 10,000-20,000 RFU.

For `O=C(O)CN(CCN(CC(=O)O)CC(=O)O)CC(=O)O` [EDTA], the “Vmax, MCA-Leu Substrate” value (M. hyorhinis [6]; Buffer) was 0, the “Vmax, MCA-Leu Substrate” value (M. hyorhinis [6]; Infected) was 45241 and the “Vmax, MCA-Leu Substrate” value (M. hyorhinis [6]; Medium) was 1710. For the same compound, the “Vmax, MCA-Leu Substrate” value (M. hyorhinis [6]; Uninfected) was 3873.

In the case of `O=C(O)c1cc(SSc2ccc([N+](=O)[O-])c(C(=O)O)c2)ccc1[N+](=O)[O-]` [DTNB, 5,5′-Dithio-bis-(2-nitrobenzoic acid)], the “hydrolysis / thioredoxin reductase activity” value (E. coli) is reported as “no significant activity; also recorded: no appreciable hydrolysis” and the “hydrolysis / thioredoxin reductase activity” value (S. aureus) is reported as “no significant activity; also recorded: no appreciable hydrolysis”.

With `[Cl][Mn][Cl]` [MnCl2] the “Vmax, MCA-Leu Substrate” value (M. hyorhinis [6]; Medium) was 1703.

For “arginine-(7-methoxycoumarin-4-yl)acetyl [arg-MCA]”, the “activity of M. hyorhinis for substrate” value (M. hyorhinis [2]; 0.05% HECAMEG, 1 mM MgCl2, 100 mM NaCl, 40 mM Tris buffer, pH 8.5) was “weak activity”, the Vmax (M. hyorhinis [2]; Buffer) was 0 and the Vmax (M. hyorhinis [2]; Infected medium) was 60903. It also gave a Vmax (M. hyorhinis [2]; Medium) of 676 and a Vmax (M. hyorhinis [2]; Uninfected medium) of 29034.

In the case of `CCCCCCCNC(=O)OC[C@H]1O[C@H](OC)[C@H](O)[C@@H](O)[C@@H]1O` [HECAMEG, Methyl-6-O—(N-heptylcarbamoyl)-α-D-glucopyranoside], the “concentration sufficient to lyse Mycoplasma cells while not disrupting the membranes of the cultured cells” value (Mycoplasma cells) is reported as 0.5%.

With `O=S(=O)([O-])[O-].[Mg+2]` [MgSO4] the “Vmax, MCA-Leu Substrate” value (M. hyorhinis [6]; Buffer) was 483, the “Vmax, MCA-Leu Substrate” value (M. hyorhinis [6]; Infected) was 90365 and the “Vmax, MCA-Leu Substrate” value (M. hyorhinis [6]; Uninfected) was 5125.

“leucine-(7-methoxycoumarin-4-yl)acetyl [leu-MCA]” gave a Vmax ([7]; Buffer (PBS)) of 2874, a Vmax ([7]; Infected medium) of 906 and a Vmax ([7]; Mycoplasma positive control) of 522. The Vmax ([7]; Uninfected medium) was 454, the Vmax (M. hyorhinis [2]; Buffer) was 236 and the Vmax (M. hyorhinis [2]; Infected medium) was 415190. It also gave a Vmax (M. hyorhinis [2]; Medium) of 2118, a Vmax (M. hyorhinis [2]; Uninfected medium) of 17422 and a signal level (M. hyorhinis [2]; in 30 minutes with M. hyorhinis) of 500 mOD.

Source: patent US20100221758A1, “Sensors for Measuring Contaminants” (ECI Biotech Inc., priority 2007, published 2010)
